What was measured:
Type in all cases: functional
Enterococcus faecium [1] = experiment: Antibacterial activity against vancomycin-resistant Enterococcus faecium clinical isolate 30/48 after overnight incubation by two-fold serial dilution method
Enterococcus faecalis [2] = experiment: Antibacterial activity against vancomycin-resistant Enterococcus faecalis clinical isolate 7846 after overnight incubation by two-fold serial dilution method
Enterococcus faecalis [3] = experiment: Antibacterial activity against vancomycin-resistant Enterococcus faecalis clinical isolate 27728 after overnight incubation by two-fold serial dilution method
Enterococcus faecium [4] = experiment: Antibacterial activity against vancomycin-resistant Enterococcus faecium clinical isolate 15/213 after overnight incubation by two-fold serial dilution method
Enterococcus faecium [5] = experiment: Antibacterial activity against vancomycin-resistant Enterococcus faecium clinical isolate 3864 after overnight incubation by two-fold serial dilution method
Enterococcus faecalis [6] = experiment: Antibacterial activity against vancomycin-resistant Enterococcus faecalis clinical isolate 22626 after overnight incubation by two-fold serial dilution method
Enterococcus faecalis [7] = experiment: Antibacterial activity against vancomycin-resistant Enterococcus faecalis clinical isolate 7077 after overnight incubation by two-fold serial dilution method
Enterococcus faecium [8] = experiment: Antibacterial activity against vancomycin-resistant Enterococcus faecium clinical isolate 147969 after overnight incubation by two-fold serial dilution method
Enterococcus faecalis [9] = experiment: Antibacterial activity against vancomycin-resistant Enterococcus faecalis clinical isolate 5642 after overnight incubation by two-fold serial dilution method
Enterococcus faecium [10] = experiment: Antibacterial activity against vancomycin-resistant Enterococcus faecium clinical isolate 27/16917 after overnight incubation by two-fold serial dilution method; details: isolate 27/1691
Enterococcus faecium [11] = experiment: Antibacterial activity against vancomycin-resistant Enterococcus faecium clinical isolate 12/266 after overnight incubation by two-fold serial dilution method
Enterococcus faecium [12] = experiment: Antibacterial activity against vancomycin-resistant Enterococcus faecium clinical isolate 8/224 after overnight incubation by two-fold serial dilution method
Enterococcus faecalis [13] = experiment: Antibacterial activity against vancomycin-resistant Enterococcus faecalis clinical isolate 7079 after overnight incubation by two-fold serial dilution method
Enterococcus faecium [14] = experiment: Antibacterial activity against vancomycin-resistant Enterococcus faecium clinical isolate 6/22 after overnight incubation by two-fold serial dilution method
Enterococcus faecium [15] = experiment: Antibacterial activity against vancomycin-resistant Enterococcus faecium clinical isolate 29/203 after overnight incubation by two-fold serial dilution method
Enterococcus faecium [16] = experiment: Antibacterial activity against vancomycin-resistant Enterococcus faecium clinical isolate 13246 after overnight incubation by two-fold serial dilution method
Enterococcus faecium [17] = experiment: Antibacterial activity against vancomycin-resistant Enterococcus faecium clinical isolate 14643 after overnight incubation by two-fold serial dilution method
Enterococcus faecium [18] = experiment: Antibacterial activity against vancomycin-resistant Enterococcus faecium clinical isolate 31176 after overnight incubation by two-fold serial dilution method
Enterococcus [19] = experiment: Antibacterial activity against vancomycin-resistant Enterococcus ATCC 29212 after overnight incubation by two-fold serial dilution method
Enterococcus faecium [20] = experiment: Antibacterial activity against vancomycin-resistant Enterococcus faecium clinical isolate 16115 after overnight incubation by two-fold serial dilution method
Enterococcus faecalis [21] = experiment: Antibacterial activity against vancomycin-resistant Enterococcus faecalis clinical isolate 5814 after overnight incubation by two-fold serial dilution method
Enterococcus faecalis [22] = experiment: Antibacterial activity against vancomycin-resistant Enterococcus faecalis clinical isolate 21/235 after overnight incubation by two-fold serial dilution method
Enterococcus faecalis [23] = experiment: Antibacterial activity against vancomycin-resistant Enterococcus faecalis clinical isolate 7670 after overnight incubation by two-fold serial dilution method
Enterococcus faecalis [24] = experiment: Antibacterial activity against vancomycin-resistant Enterococcus faecalis clinical isolate 22/203 after overnight incubation by two-fold serial dilution method
Enterococcus [25] = experiment: Antibacterial activity against vancomycin-resistant Enterococcus ATCC 51299 after overnight incubation by two-fold serial dilution method
Enterococcus faecium [26] = experiment: Antibacterial activity against vancomycin-resistant Enterococcus faecium clinical isolate 151495 after overnight incubation by two-fold serial dilution method
Enterococcus faecium [27] = experiment: Antibacterial activity against vancomycin-resistant Enterococcus faecium clinical isolate 16475 after overnight incubation by two-fold serial dilution method
Enterococcus faecium [28] = experiment: Antibacterial activity against vancomycin-resistant Enterococcus faecium clinical isolate 10177 after overnight incubation by two-fold serial dilution method
Enterococcus faecium [29] = experiment: Antibacterial activity against vancomycin-resistant Enterococcus faecium clinical isolate 5484 after overnight incubation by two-fold serial dilution method
Enterococcus faecium [30] = experiment: Antibacterial activity against vancomycin-resistant Enterococcus faecium clinical isolate 12875 after overnight incubation by two-fold serial dilution method
Enterococcus faecium [31] = experiment: Antibacterial activity against vancomycin-resistant Enterococcus faecium clinical isolate 18906 after overnight incubation by two-fold serial dilution method
Enterococcus faecium [32] = experiment: Antibacterial activity against vancomycin-resistant Enterococcus faecium clinical isolate 7/27 after overnight incubation by two-fold serial dilution method
Enterococcus faecium [33] = experiment: Antibacterial activity against vancomycin-resistant Enterococcus faecium clinical isolate 5396 after overnight incubation by two-fold serial dilution method
Enterococcus faecium [34] = experiment: Antibacterial activity against vancomycin-resistant Enterococcus faecium clinical isolate 31386 after overnight incubation by two-fold serial dilution method
Enterococcus faecium [35] = experiment: Antibacterial activity against vancomycin-resistant Enterococcus faecium clinical isolate 27/221 after overnight incubation by two-fold serial dilution method
Enterococcus faecalis [36] = experiment: Antibacterial activity against vancomycin-resistant Enterococcus faecalis clinical isolate 6093 after overnight incubation by two-fold serial dilution method
Enterococcus faecalis [37] = experiment: Antibacterial activity against vancomycin-resistant Enterococcus faecalis clinical isolate 387702 after overnight incubation by two-fold serial dilution method
Enterococcus faecium [38] = experiment: Antibacterial activity against vancomycin-resistant Enterococcus faecium clinical isolate 17301 after overnight incubation by two-fold serial dilution method
Enterococcus faecium [39] = experiment: Antibacterial activity against vancomycin-resistant Enterococcus faecium clinical isolate 28/211 after overnight incubation by two-fold serial dilution method
Enterococcus faecalis [40] = experiment: Antibacterial activity against vancomycin-resistant Enterococcus faecalis clinical isolate 5648 after overnight incubation by two-fold serial dilution method
Enterococcus faecium [41] = experiment: Antibacterial activity against vancomycin-resistant Enterococcus faecium clinical isolate 23/240 after overnight incubation by two-fold serial dilution method

## H-RWRLLLLKRH-OH
Enterococcus faecium [1]
  MIC: 12.5 µg/mL
Enterococcus faecalis [2]
  MIC: 12.5 µg/mL
Enterococcus faecalis [3]
  MIC: 12.5 µg/mL
Enterococcus faecium [4]
  MIC: 12.5 µg/mL
Enterococcus faecium [5]
  MIC: 12.5 µg/mL
Enterococcus faecalis [6]
  MIC: 12.5 µg/mL
Enterococcus faecalis [7]
  MIC: 12.5 µg/mL
Enterococcus faecium [8]
  MIC: 12.5 µg/mL
Enterococcus faecalis [9]
  MIC: 12.5 µg/mL
Enterococcus faecium [10]
  MIC: 12.5 µg/mL
Enterococcus faecium [11]
  MIC: 12.5 µg/mL
Enterococcus faecium [12]
  MIC: 12.5 µg/mL
Enterococcus faecalis [13]
  MIC: 12.5 µg/mL
Enterococcus faecium [14]
  MIC: 12.5 µg/mL
Enterococcus faecium [15]
  MIC: 12.5 µg/mL
Enterococcus faecium [16]
  MIC: 12.5 µg/mL
Enterococcus faecium [17]
  MIC: 12.5 µg/mL
Enterococcus faecium [18]
  MIC: 12.5 µg/mL
Enterococcus [19]
  MIC: 12.5 µg/mL
Enterococcus faecium [20]
  MIC: 12.5 µg/mL
Enterococcus faecalis [21]
  MIC: 12.5 µg/mL
Enterococcus faecalis [22]
  MIC: 12.5 µg/mL
Enterococcus faecalis [23]
  MIC: 12.5 µg/mL
Enterococcus faecalis [24]
  MIC: 12.5 µg/mL
Enterococcus [25]
  MIC: 12.5 µg/mL
Enterococcus faecium [26]
  MIC: 12.5 µg/mL
Enterococcus faecium [27]
  MIC: 12.5 µg/mL
Enterococcus faecium [28]
  MIC: 12.5 µg/mL
Enterococcus faecium [29]
  MIC: 12.5 µg/mL
Enterococcus faecium [30]
  MIC: 12.5 µg/mL
Enterococcus faecium [31]
  MIC: 12.5 µg/mL
Enterococcus faecium [32]
  MIC: 12.5 µg/mL
Enterococcus faecium [33]
  MIC: 12.5 µg/mL
Enterococcus faecium [34]
  MIC: 12.5 µg/mL
Enterococcus faecium [35]
  MIC: 12.5 µg/mL
Enterococcus faecalis [36]
  MIC: 12.5 µg/mL
Enterococcus faecalis [37]
  MIC: 12.5 µg/mL
Enterococcus faecium [38]
  MIC: 12.5 µg/mL
Enterococcus faecium [39]
  MIC: 12.5 µg/mL
Enterococcus faecalis [40]
  MIC: 12.5 µg/mL
Enterococcus faecium [41]
  MIC: 12.5 µg/mL

## H-HWRLLLLKKH-OH
Enterococcus faecium [1]
  MIC: 25 µg/mL
Enterococcus faecalis [2]
  MIC: 25 µg/mL
Enterococcus faecalis [3]
  MIC: 25 µg/mL
Enterococcus faecium [4]
  MIC: 25 µg/mL
Enterococcus faecium [5]
  MIC: 25 µg/mL
Enterococcus faecalis [6]
  MIC: 25 µg/mL
Enterococcus faecalis [7]
  MIC: 25 µg/mL
Enterococcus faecium [8]
  MIC: 25 µg/mL
Enterococcus faecalis [9]
  MIC: 25 µg/mL
Enterococcus faecium [10]
  MIC: 25 µg/mL
Enterococcus faecium [11]
  MIC: 25 µg/mL
Enterococcus faecium [12]
  MIC: 25 µg/mL
Enterococcus faecalis [13]
  MIC: 25 µg/mL
Enterococcus faecium [14]
  MIC: 25 µg/mL
Enterococcus faecium [15]
  MIC: 25 µg/mL
Enterococcus faecium [16]
  MIC: 25 µg/mL
Enterococcus faecium [17]
  MIC: 25 µg/mL
Enterococcus faecium [18]
  MIC: 25 µg/mL
Enterococcus [19]
  MIC: 25 µg/mL
Enterococcus faecium [20]
  MIC: 25 µg/mL
Enterococcus faecalis [21]
  MIC: 25 µg/mL
Enterococcus faecalis [22]
  MIC: 25 µg/mL
Enterococcus faecalis [23]
  MIC: 25 µg/mL
Enterococcus faecalis [24]
  MIC: 25 µg/mL
Enterococcus [25]
  MIC: 25 µg/mL
Enterococcus faecium [26]
  MIC: 25 µg/mL
Enterococcus faecium [27]
  MIC: 25 µg/mL
Enterococcus faecium [28]
  MIC: 25 µg/mL
Enterococcus faecium [29]
  MIC: 25 µg/mL
Enterococcus faecium [30]
  MIC: 25 µg/mL
Enterococcus faecium [31]
  MIC: 25 µg/mL
Enterococcus faecium [32]
  MIC: 25 µg/mL
Enterococcus faecium [33]
  MIC: 25 µg/mL
Enterococcus faecium [34]
  MIC: 25 µg/mL
Enterococcus faecium [35]
  MIC: 25 µg/mL
Enterococcus faecalis [36]
  MIC: 25 µg/mL
Enterococcus faecalis [37]
  MIC: 25 µg/mL
Enterococcus faecium [38]
  MIC: 25 µg/mL
Enterococcus faecium [39]
  MIC: 25 µg/mL
Enterococcus faecalis [40]
  MIC: 25 µg/mL
Enterococcus faecium [41]
  MIC: 25 µg/mL

## H-RWRLLLLKKF-OH
Enterococcus faecium [1]
  MIC: 25 µg/mL
Enterococcus faecalis [2]
  MIC: 25 µg/mL
Enterococcus faecalis [3]
  MIC: 25 µg/mL
Enterococcus faecium [4]
  MIC: 25 µg/mL
Enterococcus faecium [5]
  MIC: 25 µg/mL
Enterococcus faecalis [6]
  MIC: 25 µg/mL
Enterococcus faecalis [7]
  MIC: 25 µg/mL
Enterococcus faecium [8]
  MIC: 25 µg/mL
Enterococcus faecalis [9]
  MIC: 25 µg/mL
Enterococcus faecium [10]
  MIC: 25 µg/mL
Enterococcus faecium [11]
  MIC: 25 µg/mL
Enterococcus faecium [12]
  MIC: 25 µg/mL
Enterococcus faecalis [13]
  MIC: 25 µg/mL
Enterococcus faecium [14]
  MIC: 25 µg/mL
Enterococcus faecium [15]
  MIC: 25 µg/mL
Enterococcus faecium [16]
  MIC: 25 µg/mL
Enterococcus faecium [17]
  MIC: 25 µg/mL
Enterococcus faecium [18]
  MIC: 25 µg/mL
Enterococcus [19]
  MIC: 25 µg/mL
Enterococcus faecium [20]
  MIC: 25 µg/mL
Enterococcus faecalis [21]
  MIC: 25 µg/mL
Enterococcus faecalis [22]
  MIC: 25 µg/mL
Enterococcus faecalis [23]
  MIC: 25 µg/mL
Enterococcus faecalis [24]
  MIC: 25 µg/mL
Enterococcus [25]
  MIC: 25 µg/mL
Enterococcus faecium [26]
  MIC: 25 µg/mL
Enterococcus faecium [27]
  MIC: 25 µg/mL
Enterococcus faecium [28]
  MIC: 25 µg/mL
Enterococcus faecium [29]
  MIC: 25 µg/mL
Enterococcus faecium [30]
  MIC: 25 µg/mL
Enterococcus faecium [31]
  MIC: 25 µg/mL
Enterococcus faecium [32]
  MIC: 25 µg/mL
Enterococcus faecium [33]
  MIC: 25 µg/mL
Enterococcus faecium [34]
  MIC: 25 µg/mL
Enterococcus faecium [35]
  MIC: 25 µg/mL
Enterococcus faecalis [36]
  MIC: 25 µg/mL
Enterococcus faecalis [37]
  MIC: 25 µg/mL
Enterococcus faecium [38]
  MIC: 25 µg/mL
Enterococcus faecium [39]
  MIC: 25 µg/mL
Enterococcus faecalis [40]
  MIC: 25 µg/mL
Enterococcus faecium [41]
  MIC: 25 µg/mL
